# Results taken from patent publication US11142501B2, “Prodrugs of monomethyl fumarate” (IXCHEL PHARMA, LLC, priority 2019, dated 2021).
# Structures can show the parent of a compound that is named as a salt.
# Key:
# Solubility = format: physicochemical; details: water; compared with monomethyl fumarate
# [1] = Stability of prodrugs on storage at RT and RF; format: physicochemical; details: in % (unit assumed); for Stability, value at 0 DAY: 0 day (14 Nov. 2018), dissolved in acetonitrile for analysis; for Stability, value at 7 DAY, RT / Stability, value at 15 DAY, RT: storage at room temp/25° C.; for Stability, value at 7 DAY, RT / Stability, value at 7 DAY, RF / Stability, value at 15 DAY, RT / Stability, value at 15 DAY, RF: acetonitrile for analysis; for Stability, value at 7 DAY, RF / Stability, value at 15 DAY, RF: storage under refrigeration/4° C.
# Description: Compounds dissolved in ACN for analysis RT: Room temp/25° C. RF: Refrigeration/4° C.
# [2] = Rat plasma conversion (ex-vivo); format: in vitro ADME
# [3] = Oral (PO) pharmacokinetics study in SD rat; format: in vivo
# Description: Exemplary compounds of the present invention were subjected to oral (PO) Pharmacokinetics (PK) study in SD rat and data was compared with parent MMF. 6 overnight fasted male SD rats were dosed with MMF dose of 10 mpk and test compounds at the desired dose level of 10 mpk equivalent of MMF by PO route. Dosing vehicle used was MQ water. Blood was collected at different time points by retro orbital route. Plasma samples were stored at −80° C. for LC-MS analysis. Animals were sacrificed post final blood collection. Dosing and collection was done as per the in vivo protocol given below. PK analysis was done using LC-MS (ABI3200). Data analysis was performed using PRISM software to determine PK parameters such Cmax (the maximum (or peak) serum concentration that a drug achieves in a specified compartment or test area of the body after the drug has been administrated and before the administration of a second dose), Tmax (time at which the Cmax is observed) AUC (definite integral in a plot of drug concentration in blood plasma vs. time), MRT (Mean Residence Time) and t1/2 (The time required for one half of the total amount of a particular substance in a biological system to be degraded by biological processes when the rate of removal is nearly exponential)
SMILES,Solubility (Solubility),"Stability, value at 0 DAY [1]","Stability, value at 7 DAY, RT [1]","Stability, value at 7 DAY, RF [1]","Stability, value at 15 DAY, RT [1]","Stability, value at 15 DAY, RF [1]",Rat plasma conversion [2],"pharmacokinetics in delivery of monomethyl fumarate (MMF) in comparison with direct administration of MMF ([3]; FIG. 1 legend, in words)","AUC in rat plasma as compared to the parent drug MMF ([3]; SD rat, PO, in words)","T1/2 in rat plasma as compared to the parent drug MMF ([3]; SD rat, PO, in words)","conversion in vivo ([3]; in vivo, rat)"
"COC(=O)/C=C/C(=O)O [MMF, monomethyl fumarate]",highly soluble,–,–,–,–,–,–,–,–,–,–
"COC(=O)/C=C/C(=O)OC[n+]1cccc(C(N)=O)c1.[I-] [SPR11574, (E)-3-carbamoyl-1-(((4-methoxy-4-oxobut-2-enoyl)oxy)methyl) pyridin-1-ium iodide]",–,97.81,97.61,97.61,97.21,97.95,convert instantly,–,–,–,–
"CNC(=O)c1ccc[n+](COC(=O)/C=C/C(=O)OC)c1.[I-] [SPR11575, (E)-1-(((4-methoxy-4-oxobut-2-enoyl)oxy)methyl)-3-(methylcarbamoyl) pyridin-1-ium iodide]",–,97.7,97.61,97.82,97.06,97.66,convert instantly,enhanced,better enhanced,better enhanced,–
"COC(=O)/C=C/C(=O)OC[n+]1cccc(C(=O)N(C)C)c1.[I-] [SPR11576, (E)-3-(dimethylcarbamoyl)-1-(((4-methoxy-4-oxobut-2-enoyl)oxy)methyl)pyridin-1-ium iodide]",–,97.68,96.97,97.7,96.28,97.82,convert instantly,–,–,–,–
"COC(=O)/C=C/C(=O)OCOC(=O)c1cccnc1 [SPR11577, methyl((nicotinoyloxy) methyl)fumarate]",–,99.35,99.79,99.89,100,100,convert instantly,–,–,–,–
"COC(=O)/C=C/C(=O)OCOC(=O)c1ccc[n+](C)c1.[I-] [SPR11578, (E)-3-((((4-methoxy-4-oxobut-2-enoyl)oxy)methoxy)carbonyl)-1-methylpyridin-1-ium iodide]",–,–,–,–,–,–,doesn't convert completely,–,–,–,doesn't convert completely
